{
  "source": "patent US20230256036A1",
  "about": "“SERPIN PRODUCTION” (SOCIETE DES PRODUITS NESTLE S.A., priority 2020, published 2023)",
  "key": {"[1]": {"system": "serpin protein in B. longum NCC 2705", "test": "Serpin protein level by ELISA in B. longum NCC 2705 grown on HMOs", "format": "cell-based, Bifidobacterium longum subsp longum", "conditions": "HMO 0.5 wt %, 16 h, FIG. 1", "method": "(§1) B. longum strain CNCM I-2618 (NCC 2705) was grown in Biolector (growth conditions—anaerobic, 37° C.) in MRS+5 mM L-cysteine (MRSc) base without sugar, to which different commercially available Human Milk Oligosaccharides (HMOs) were added at a concentration of 0.5 wt %.\n(§2) 48-well microtiter plate with pH sensor and dissolved oxygen (DO) sensor were used to culture the strains in Biolector (m2p-labs Aachen, Germany). It was continuously shaken to prevent bacteria aggregation for 16 h. Cultures were harvested by centrifugation and supernatant was removed. Pellet was resuspended in PBS supplemented with halt protease inhibitor (Sigma) and lysed using glassbeads. Lysate containing both soluble and insoluble material was then collected. Total protein content was measured using Pierce BCA kit (Thermofisher) and serpin protein concentration was determined using ELISA."}, "[2]": {"system": "B. longum subsp. longum strains", "test": "Growth of B. longum subsp. longum strains on LNT as sole carbohydrate source", "format": "cell-based, Bifidobacterium longum subsp longum", "conditions": "0.5% LNT in MRSc base without sugar, 16 h, all tested B. longum subsp. longum strains", "method": "as §1, §2\nThe serpin encoding gene and its surrounding is highly conserved within the B. longum subsp. longum species. Strains of B. longum subsp. longum were selected to represent the entire span of the genetic phylogenetic tree (Table 2). All strains were cultured in Biolector (according to example 1) in a MRSc base without sugar, to which 0.5% glucose or 0.5% of LNT was added. Cultures were grown for 16 h and harvested. Obtained pellets were further analyzed for total and serpin protein content (see example 1)."}, "[3]": {"system": "B. longum strain CNCM I-2618 (NCC 2705)", "test": "Growth of B. longum NCC 2705 in Biolector on MRSc base without sugar plus HMO", "format": "cell-based, Bifidobacterium longum subsp longum", "conditions": "HMO 0.5 wt % in MRSc base without sugar, anaerobic, 37° C., 16 h", "method": "as §1, §2"}, "[4]": {"system": "serpin protein in B. longum subsp. longum strains", "test": "Serpin protein level by ELISA in B. longum subsp. longum strains grown on glucose or LNT", "format": "cell-based, Bifidobacterium longum subsp longum", "conditions": "0.5% LNT vs 0.5% glucose, 16 h, all tested strains, FIG. 2", "protocol": "48-well microtiter plate with pH sensor and dissolved oxygen (DO) sensor were used to culture the strains in Biolector [MUT]-labs Aachen, Germany). It was continuously shaken to prevent bacteria aggregation for 16 h. Cultures were harvested by centrifugation and supernatant was removed. Pellet was resuspended in PBS supplemented with halt protease inhibitor (Sigma) and lysed using glassbeads. Lysate containing both soluble and insoluble material was then collected. Total protein content was measured using Pierce BCA kit (Thermofisher) and serpin protein concentration was determined using ELISA. […] All strains were cultured in Biolector (according to example 1) in a MRSc base without sugar, to which 0.5% glucose or 0.5% of LNT was added. Cultures were grown for 16 h and harvested. Obtained pellets were further analyzed for total and serpin protein content (see example 1)."}, "[5]": {"system": "serpin in Bifidobacterium longum subsp longum", "test": "Serpin induction by LNT in culture medium containing glucose", "format": "cell-based", "conditions": "only when the glucose is present at levels allowing its depletion during fermentation", "description": "LNT may be added to a conventional culture medium comprising up to 8 wt %, preferably up to 6 wt %, for example up to 4 wt %, of another sugar suitable to sustain B. longum growth, such as, but not limited to, glucose. […] Preferably the culture medium at the end of the fermentation contains less than 0.4 wt % glucose, such as from 0 wt % to 0.3 wt % glucose, for example from 0.02 wt % to 0.4 wt %, or from about 0.05 wt % to about 0.3 wt %. Conventional culture mediums suitable for growth of B. longum are well known to the person skilled in the art."}},
  "data": [
    {"smiles": "CC(=O)N[C@H]1[C@H](O[C@H]2[C@@H](O)[C@@H](CO)O[C@@H](O[C@H]3[C@H](O)[C@@H](O)C(O)O[C@@H]3CO)[C@@H]2O)O[C@H](CO)[C@@H](O)[C@@H]1O[C@@H]1O[C@H](CO)[C@H](O)[C@H](O)[C@H]1O", "note": "(some centres unmarked) [LNT, Lacto-N-tetraose]", "values": [
      {"measurement": "levels of serpin protein in B. longum NCC 2705", "setting": "[1]", "result": "significantly increase"},
      {"measurement": "growth on LNT as sole carbohydrate source", "setting": "[2]", "result": "able to grow"},
      {"measurement": "support of growth of B. longum NCC 2705", "setting": "[3]", "result": "the only one supporting the growth"},
      {"measurement": "serpin protein levels in B. longum subsp. longum strains", "setting": "[4]", "result": "increased"},
      {"measurement": "induction of serpin production when glucose is present", "setting": "[5]", "result": "can induce production of serpin"}
    ]}
  ]
}
